Measurements reported in patent US8658616B2, “Nucleoside aryl phosphoramidates and their use as anti-viral agents for the treatment of hepatitis C virus” (University College Cardiff Consultants Limited, priority 2006, dated 2014).
Several values for one entry are separate records, joined by “and”; a condition that tells them apart may be missing. Equal entries are not always repeated. Where two headings read alike, the source gives them in different places.

Experiments:
[1] = CC50 (cytotoxicity, Table I); assay type: cell-based; settings: human, Huh 7 cells; method and cell line not described
[2] = test system: subgenomic HCV replicons I389luc-ubi-neo/NS3-3′/5.1 (Huh 5-2); assay: Anti-HCV assay in Huh 5-2 cells (luciferase replicon); assay type: cell-based, hepatitis C virus (HCV); settings: for potency with respect to HCV compared with compound CHC5 (free nucleoside): comparison of Table I data
Description: (§1) Anti-HCV assay in Huh 7 cells. Huh 7 cells containing subgenomic HCV replicons I389luc-ubi-neo/NS3-3′/5.1 (Huh 5-2) or I377/NS3-3′/wt (Huh 9-13) have been described (Lohmann V, Korner F, Koch J, Herian U, Theilmann L, Bartenschlager R. (1999) Replication of subgenomic hepatitis C virus RNAs in a hepatoma cell line. Science 285:110-113. Lohmann V, Korner F, Dobierzewska A, Bartenschlager R. (2001) Mutations in hepatitis C virus RNAs conferring cell culture adaptation. J Virol. 75:1437-1449.). Cells were grown in Dulbecco's modified Eagle's Medium (DMEM; Gibco, Merelbeke, Belgium) supplemented with 10% heat-inactivated fetal bovine serum (FCS) (Integro, Zaandam, The Netherlands), 1× non-essential amino acids (Gibco), 100 IU/ml penicillin (Gibco), 100 μg/ml streptomycin (Gibco) and 250 μg/ml Geneticin (G418, Gibco) for Huh 5-2 cells, 1000 μg/ml G418 for Huh 9-13 cells
Anti-HCV Assay in Huh 5-2 Cells.
Huh 5-2 cells were seeded at a density of 5×10^3 per well in a tissue culture treated white 96-well view plate (Packard, Canberra, Canada) in complete DMEM supplemented with 250 μg/ml G418. Following incubation for 24 h at 37° C. (5% CO2) medium was removed and serial dilutions in complete DMEM (without G418) of the test compounds were added in a total volume of 100 μl. After 4 days of incubation at 37° C., cell culture medium was removed and luciferase activity was determined using the Steady-Glo luciferase assay system (Promega, Leiden, The Netherlands); the luciferase signal was measured using a Luminoskan Ascent (Thermo, Vantaa, Finland). The 50% effective concentration (EC50) was defined as the concentration of compound that reduced the luciferase signal by 50%.

[3] = test system: subgenomic HCV replicons I377/NS3-3′/wt (Huh 9-13); assay: Anti-HCV assay in Huh 9-13 cells (RT-qPCR of replicon RNA); assay type: cell-based, hepatitis C virus (HCV); settings: read-out: HCV Huh 9-13 EC50
Description: as §1
Anti-HCV Assay in Huh 9-13 Cells.
Huh 9-13 cells were seeded at a density of 5×10^3 cells per well in 96-well cell culture plates in complete DMEM supplemented with 1000 μg/ml G418. Following incubation for 24 h at 37° C. cell culture medium was removed and serial dilutions of the test compounds in complete DMEM without G418 were added in a total volume of 100 μl. After 4 days of incubation at 37° C., cell culture fluid was removed and monolayers were washed once with phosphate-buffered saline. Cells were lysed in 350 μl RLT buffer (Qiagen, Venlo, The Netherlands) according to the Manufacturer's instruction. Lysates were stored at −80° C. until further use. […]

Huh 7 cells = assay: CC50 (cytotoxicity, Table I); assay type: cell-based; settings: method and cell line not described
[4] = Hepatitis C virus, Huh-5-2, 96 h, read-out: HCV Huh 5-2 EC50, Huh 5-2 cells, 4 days incubation, concentration that reduced the luciferase signal by 50%
[5] = Huh 5-2 cells, 4 days incubation, concentration that reduced the luciferase signal by 50%, read-out: HCV Huh 5-2 EC50

Structure (SMILES)	CC50 [1] [nM]	EC50 [2, 4] [nM]	other results
CCOC(=O)[C@H](C)NP(=O)(OC[C@H]1O[C@@H](n2cnc3c(N)ncnc32)C(C)(O)C1O)Oc1cccc2ccccc12 (stereo partly drawn) [CHC2, β-2′-methyl-adenosine 5′-O-[α-naphthyl(ethoxy-L-alaninyl)]phosphate]	> 50000	120	
C[C@H](NP(=O)(OC[C@H]1O[C@@H](n2cnc3c(=O)[nH]c(N)nc32)C(C)(O)C1O)Oc1cccc2ccccc12)C(=O)OC(C)(C)C (stereo partly drawn) [CHC8, β-2′-methyl-guanosine 5′-O-[α-naphthyl(tert-butoxy-L-alaninyl)]phosphate]	> 50000	> 50000	
CCOC(=O)[C@H](C)NP(=O)(OC[C@H]1O[C@@H](n2cnc3c(=O)[nH]c(N)nc32)C(C)(O)C1O)Oc1cccc2ccccc12 (stereo partly drawn) [CHC7, β-2′-methyl-guanosine 5′-O-[α-naphthyl(ethoxy-L-alaninyl)]phosphate]	> 50000	150	potency with respect to HCV compared with compound CHC5 (free nucleoside) [2]: greater potency; EC50 ([2]; read-out: HCV Huh 5-2 EC50, Huh 5-2 cells, 4 days incubation, concentration that reduced the luciferase signal by 50%): 200 nM and 160 nM
C[C@H](NP(=O)(OC[C@H]1O[C@@H](n2cnc3c(=O)[nH]c(N)nc32)C(C)(O)C1O)Oc1cccc2ccccc12)C(=O)OCc1ccccc1 (stereo partly drawn) [CHC6, β-2′-methyl-guanosine 5′-O-[α-naphthyl(benzoxy-L-alaninyl)]phosphate]	> 50000		potency with respect to HCV compared with compound CHC5 (free nucleoside) [2]: greater potency; EC50 ([3]; Hepatitis C virus, 96 h): 60 nM
C[C@@]1(O)[C@H](O)[C@@H](CO)O[C@H]1n1cnc2c(=O)[nH]c(N)nc21 [CHC5, β-2′-methyl-guanosine, reference compound]			CC50 (Huh 7 cells): > 50000 nM; EC50 [2, 5]: 3000 nM and 5000 nM; EC50 ([3]; Huh 9-13 cells, 4 days incubation, concentration that reduced replicon RNA content by 50% (RT-qPCR)): 1500 nM
C[C@H](NP(=O)(OC[C@H]1O[C@@H](n2cnc3c(N)ncnc32)C(C)(O)C1O)Oc1cccc2ccccc12)C(=O)OC(C)(C)C (stereo partly drawn) [CHC4, β-2′-methyl-adenosine 5′-O-[α-naphthyl(tert-butoxy-L-alaninyl)]phosphate]	> 50000	2360	
C[C@H](NP(=O)(OC[C@H]1O[C@@H](n2cnc3c(N)ncnc32)C(C)(O)C1O)Oc1cccc2ccccc12)C(=O)OCc1ccccc1 (stereo partly drawn) [CHC3, β-2′-methyl-adenosine 5′-O-[α-naphthyl(benzoxy-L-alaninyl)]phosphate]	44000	160	
C[C@H](NP(=O)(OC[C@H]1O[C@@H](n2cnc3c(=O)[nH]c(N)nc32)C(C)(O)C1O)Oc1ccccc1)C(=O)OCc1ccccc1 (stereo partly drawn) [CHC9, β-2′-methyl-guanosine 5′-O-[phenyl(benzoxy-L-alaninyl)]phosphate]	> 50000	36000	EC50 ([3]; Hepatitis C virus, 96 h): 4100 nM
CC1(O)C(O)[C@@H](CO)O[C@H]1n1cnc2c(N)ncnc21 (stereo partly drawn) [CHC1, β-2′-methyl-adenosine, reference compound]	29000		CC50 (Huh 7 cells): > 33000 nM; EC50 ([2]; Hepatitis C virus, Huh-5-2, 96 h, Huh 5-2 cells, 4 days incubation, concentration that reduced the luciferase signal by 50%, read-out: HCV Huh 5-2 EC50): 140 nM; EC50 [2, 5]: 80 nM and 130 nM
